System: polymerase
Format: biochemical
Description: The incorporation score is a direct reflection of the incorporation half time; +++ refers to 4 to 14 seconds, ++ refers to 15 to 25 seconds, and + refers to greater than 25 seconds. The next base incorporation score reflects the incorporation half time for the next base, C refers to 20 to 100 seconds, B refers to 101 to 200 seconds, and A refers to greater than 200 seconds.

## O=C(O)CCCC[C@@H]1SC[C@@H]2NC(=O)N[C@@H]21 [biotin]
Nucleobase not stated
  incorporation score: + (+ refers to greater than 25 seconds)
Same experimental conditions for biotin and rhodamine dye
  incorporation halftime: 28 s
